Three molecules from US10774046B2, “Inhibitors for the treatment of cancer and related methods” (UNIVERSITY OF LOUISVILLE RESEARCH FOUNDATION, INC., priority 2017, dated 2020) can be followed below.

For one data set, the target named is human recombinant PFKFB4 (Homo sapiens, UniProt Q16877). Put plainly: ADP-Glo kinase assay. It counts as biochemical. The procedure: The fructose-6-phosphate kinase activity of human recombinant PFKFB4 in the presence of DMSO±indicated 5MPN concentrations was assayed as previously described. The activity of 5MPN against 97 kinases was examined using a commercially available active-site dependent competition binding assay core service (KINOMEscanEDGE) that quantifies the capacity of test agents to compete with an immobilized, active-site directed ligand using a DNA-tagged kinase and immobilized ligand and compound. For example, enzyme inhibition was studied using an ADP-Glo assay. The effect of MPN-2 on the activity of recombinant human PFKFB4 enzyme was examined in an ADP-Glo assay (Promega), which measures ADP formed from a kinase reaction. ADP is converted into ATP, which is converted into light by a luciferase. PFKFB4 protein was exposed to MPN-2 at indicated concentrations in the presence of ATP and fructose-6-phosphate and following manufacturer's instructions, ADP-Glo and kinase detections reagents were added. The data are shown as the decrease in luminescence caused by MPN-2 relative to DMSO.
Method: The efficacy of Formula (VIII) in inhibition of the kinase activity of the PFKFB4 enzyme was examined by exposing recombinant human PFKFB4 protein to Formula (VIII) in the ADP-Glo kinase assay (Promega) which measures ADP formed through a kinase reaction. Briefly, recombinant protein, ATP, substrate and Formula (VIII) were incubated together for the kinase reaction followed by the addition of ADP-Glo reagent, used to terminate the kinase reaction. Lastly, a kinase detection reagent was added to convert the newly formed ADP to ATP which was measured by a luciferase reaction. Data are shown in FIG. 10 as the decrease in luminescence caused by Formula (VIII) relative to DMSO.
Method: The efficacy of FB4-32 and FB4-35 in inhibition of the kinase activity of the PFKFB4 enzyme was examined by exposing recombinant human PFKFB4 protein to FB4-32 and FB4-35 in the ADP-Glo kinase assay (Promega) which measures ADP formed through a kinase reaction. Briefly, recombinant protein, ATP, substrate and FB4-32 or FB4-35 were incubated together for the kinase reaction followed by the addition of ADP-Glo reagent to terminate the kinase reaction. Last, a kinase detection reagent was added to convert the newly formed ADP to ATP which was measured by a luciferase reaction. Data are shown as the decrease in luminescence caused by FB4-32 and FB4-35 relative to DMSO.

Another data set concerns H460 cells. In words: F2,6BP measurement in cells (coupled enzyme reaction). It counts as cell-based, human. As for the experimental part:
Cells or tissues were prepared as previously described and F2,6BP content measured using a coupled enzyme reaction following a modification of the method of Van Schaftingen et al (VAN SCHAFTINGEN E et al. “A kinetic study of pyrophosphate:fructose-6-phosphate phosphotransferase from potato tubers. Application to a microassay of fructose 2,6-bisphosphate” Eur J Biochem (1982) Vol. 129, No. 1, pp. 191-195) and normalized to total cellular protein measured by the bicinchoninic acid assay (BCA, Thermo Scientific). For example, H460 cells were exposed to the indicated concentrations of MPN-2. In order to measure F2,6BP, cells were harvested, washed with PBS, lysed in NaOH/Tris acetate by heating at 80° C. and lysates neutralized to pH 7.2. F2,6BP content was measured using a coupled enzyme reaction following a modified method of Van Schaftingen et al (VAN SCHAFTINGEN E et al. “A kinetic study of pyrophosphate:fructose-6-phosphate phosphotransferase from potato tubers. Application to a microassay of fructose 2,6-bisphosphate” Eur J Biochem (1982) Vol. 129, No. 1, pp. 191-195). The F2,6BP concentration was normalized to total cellular protein measured by the bicinchoninic acid assay (BCA, Thermo Scientific). All data are expressed as the mean±SD of three experiments. Statistical significance was assessed by the two-sample t test (independent variable).
Method: In order to measure F26BP, H460 cells were exposed to increasing concentrations of the agents and were harvested, washed with PBS, lysed in NaOH/Tris acetate by heating at 80° C. and lysates neutralized to pH 7.2. F26BP content was measured using a coupled enzyme reaction following a modified method of Van Schaftingen et al. (Eur J Biochem. 1982; 129(1):191-195). The F26BP concentration was normalized to total cellular protein measured by the bicinchoninic acid assay (BCA, Thermo Scientific).

Data set [1] has as its system Lewis lung carcinoma (LLC) tumors. In words: Lewis lung carcinoma tumor growth in syngeneic mice. Type of data set: in vivo, C57BL/6 mice. As for the experimental part:
For xenograft studies, exponentially growing LLC or H460 cells were detached, washed and resuspended in PBS. Female C57BL/6 mice (Jackson Labs) were injected with LLC cells (n=10/group, s.c., 1×10^6 cells) and female BALB/c athymic mice (Jackson Labs) with H460 cells (n=10/group, s.c, 5×10^6 cells). Tumor masses were determined in a blinded fashion with Vernier calipers using the formula: mass (mg)=(width, mm)^2×(length, mm)/2 as previously described. When tumor masses were 150-200 mg, mice were randomized to daily intraperitoneal DMSO or 5MPN at the indicated dose in 50 μL DMSO. Tumor measurements and body weights were followed daily. All data are expressed as the mean±SD of two experiments. Statistical significance was assessed by the two-sample t test (independent variable).
Method: C57BL/6 mice (Charles River) were implanted with 1×10^6 Lewis lung carcinoma cells subcutaneously and, after tumors developed, were followed by caliper measurements daily to quantify tumor mass using the formula: tumor mass=(length×width^2)/2. When tumors were ˜150-200 mg, mice were randomized to daily oral DMSO±Formula (VIII) (n=10/group) at 40 mg/kg in 50 μL DMSO and tumor growth followed×9 days. (* signifies statistical significance)

Another data set relates to LLC tumors. In words: tumor glucose uptake by FDG micro-PET. Type of data set: in vivo, C57BL/6 mice. The procedure: At the end of the experiment, animals were euthanized, tumors removed and sections fixed in 10% formaldehyde for immunohistochemistry or snap-frozen in liquid nitrogen for analyses. Subsets of tumor-bearing mice (n=3) were injected i.p. with 2-[^18F]-fluoro-2-deoxyglucose (FDG, 150 μCi, 100 μl) and imaged by micro-positron emission tomography as previously described. Regions of interest in the tumors and cerebellum were quantified in quadruplicate and expressed as the mean±SD of the tumor:cerebellar FDG uptake ratio. Animal experiments were approved by the University of Louisville Institutional Animal Care and Use Committee.
Method: FDG-PET was conducted on tumor-bearing mice to determine acute effects of Formula (VIII) on glucose uptake. C57BL/6 mice (Charles River) with subcutaneous Lewis lung carcinoma tumors were injected intraperitoneally with 100 μCi of ^18F-fluoro-2-deoxy-glucose under isoflurane anesthesia and subjected to a 15-minute static scan 45 minutes after tracer injection at baseline. […] Tumor/cerebellum ROI (regions of interest) were quantified, representative sagittal cuts from mice are shown with arrows showing the tumors on the animals. (* signifies statistical significance).

human recombinant PFKFB4, sequence (Q16877 whole entry): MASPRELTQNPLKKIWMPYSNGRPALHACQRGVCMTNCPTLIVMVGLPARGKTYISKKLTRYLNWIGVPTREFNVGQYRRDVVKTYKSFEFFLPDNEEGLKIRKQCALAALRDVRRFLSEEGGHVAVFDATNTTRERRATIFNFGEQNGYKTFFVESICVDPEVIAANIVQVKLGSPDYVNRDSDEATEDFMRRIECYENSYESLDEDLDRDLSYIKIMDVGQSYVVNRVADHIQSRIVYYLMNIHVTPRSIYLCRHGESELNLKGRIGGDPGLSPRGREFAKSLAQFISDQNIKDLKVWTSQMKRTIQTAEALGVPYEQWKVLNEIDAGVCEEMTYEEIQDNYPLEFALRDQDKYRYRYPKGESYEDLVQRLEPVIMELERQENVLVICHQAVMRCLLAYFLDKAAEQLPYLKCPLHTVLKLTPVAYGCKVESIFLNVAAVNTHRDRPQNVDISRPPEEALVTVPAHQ

Take “5-[(8-methoxy-2-methylquinolin-1-ium-4-yl)amino]pentyl nitrate [MPN-2]”: on human recombinant PFKFB4, the “kinase activity of the PFKFB4 enzyme (luminescence relative to DMSO)” value was “inhibited”. In addition, the “F2,6BP production” value in the data set on H460 cells (H460, indicated concentrations of MPN-2) is listed as “inhibited”. Besides, the tumor growth result in data set [1] (intraperitoneal injection 10 mg/kg daily, eleven days) is “suppressed the growth”.
As to `COc1cccc2c(NCCCCCO[N+](=O)[O-])ccnc12` [5MPN, 5-[(8-methoxyquinolin-4-yl)amino]pentyl nitrate], the “2-[18F]-fluoro-2-deoxyglucose uptake” value in the data set on LLC tumors (5MPN 120 mg/kg by gavage, once) is given as “reduction”. Moreover, the “intracellular concentration of F2,6BP” value in the data set on H460 cells (H460, 10 μM 5MPN, 6-72 hours) is “reduced”. The “effect of overexpression of PFKFB4 on reduction in F2,6BP” value in the data set with H460 cells (H460 transfected with PFKFB4, 10 μM 5MPN, 24 hours) is “reversed”. The tumor growth entry in data set [1] (5MPN 120 mg/kg oral daily, ten days) is listed as “suppressed the growth”. Further, in data set [1] (LLC-bearing mice, 120 mg/kg oral daily), the body weight entry is “without affecting body weight”.
`COc1cccc2c(NCCCCCNC(=O)C(F)(F)F)ccnc12` [Formula (VIII), 2,2,2-trifluoro-N-(5-((8-methoxyquinolin-4-yl)amino)pentyl)acetamide]: the “tumor FDG uptake” value in the data set on LLC tumors (40 mg/kg PO x1, PET after 60 minutes) is “decrease in tumor FDG uptake compared with vehicle”. The “kinase activity of the PFKFB4 enzyme (luminescence relative to DMSO)” value at human recombinant PFKFB4 is reported as “inhibited”. Besides, the established tumor growth entry in data set [1] (oral 40 mg/kg daily, 9 days) is “decreased established tumor growth”.
